From paper PMC5326599 (Antiviral research, 2017)
Several values for one entry are separate records, joined by “and”; a condition that tells them apart may be missing. Equal entries are not always repeated. Where two headings read alike, the source gives them in different places. Marks after values point to notes of the source that are not given here.

Assays:
[1] = tested on: A/WSN/33 (M2-N31S + V27A) (H1N1) virus; assay type: cell-based, influenza A virus
[2] = tested on: influenza A/WSN/33 (M2-N31S + V27A) (H1N1) virus; design: species or system BALB/c mice; settings: mouse, in vivo
[3] = tested on: A/WSN/33 (M2-N31S) (H1N1) virus; assay type: cell-based, influenza A virus; settings: read-out: EC50, A/WSN/33 (M2-N31S) (H1N1)
[4] = tested on: A/Solomon Islands/3/2006 (H1N1) virus; experiment: microbe, parasite or virus in culture; assay type: cell-based; settings: read-out: EC50, A/Solomon Islands/3/2006 (H1N1)
[5] = tested on: A/Udorn/72 (H3N2) virus (M2-WT); experiment: microbe, parasite or virus in culture; assay type: cell-based, influenza A virus
M2-S31N channel = M2-S31N channel (Influenza A virus, UniProt P0DOF5, S31N); assay type: biochemical
[6] = target: A/Udorn/72 (M2-V27A) proton channel (Influenza A virus, UniProt P0DOF5, V27A); assay type: biochemical

Structure (SMILES)	inhibition of plaque formation [1]	Mean Lung Parameters ± SD (Day 6): Hemorrhage Score [2]	Mean Lung Parameters ± SD (Day 6): Virus Titer [2]	Mean Lung Parameters ± SD (Day 6): Weight [2]	Survivors/Total [2]	protection from death [2] [%]	EC50 [3] [µM]	EC50 ([4]; Influenza A virus, H1N1, MDCK) [µM]	EC50 ([5]; Influenza A virus, H3N2, read-out: antiviral EC50 at passage 1) [µM]	MDD ± SD (mean day of death) [2]	protection / effectiveness (in words) [2]	channel inhibition at 100 μM, M2-S31N (M2-S31N channel) [%]	EC50 ([1]; read-out: Antiviral Efficacy EC50, A/WSN/33 (M2-N31S + V27A) (H1N1) M2-V27A) [µM]	EC50 [4] [µM]	EC50 ([5]; read-out: antiviral EC50 at passage 1) [µM]	EC50 ([5]; read-out: antiviral EC50 at passage 2) [µM]	channel conductance current at the second activation event, % of the maximum current [6] [%]
CCC(CC)O[C@@H]1C=C(C(=O)O)C[C@H](N)[C@H]1NC(C)=O [Oseltamivir carboxylate (4), Oseltamivir carboxylate, reference compound]	complete inhibition																
CCOC(=O)C1=C[C@@H](OC(CC)CC)[C@H](NC(C)=O)[C@@H](N)C1 [Oseltamivir (4), Oseltamivir]		0.0 ± 0.0	2.5 ± 0.2 Log10 CCID50/g	178 ± 28 mg	10/10^***	100											
NC12CC3CC(CC(C3)C1)C2 [Amantadine (1), amantadine]			[…]	[…]	[…]		[…]	[…]	[…]	[…]	minimum effectiveness						
NC1CCC2(CC1)C1CC3CC(C1)CC2C3 (centres unmarked) [Compound 3, spiroadamantane amine]			[…]	[…]	[…]		[…]			[…]	highly protective	[…]	[…]	[…]	[…]	[…]	[…]
